The target of the assay is T1, PDE4B (human recombinant) (Homo sapiens, UniProt Q07343).
T1 construct: made in house
Kind of assay: Inhibition of PDE4B activity: SPA and/or Fluorescence Polarisation (FP) assay. Particulars: one reading (n=1) or average of 2 or more readings, read-out: PDE4B pIC50 (±about 0.5) (converted). Type of assay: biochemical. Summed up:
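Human recombinant PDE4B activity measured by SPA with [3H]cAMP at about 10 nM, 1 h at ambient temperature, enzyme set for ≤20% substrate hydrolysis, or by IMAP FP with Fl-cAMP at about 40 nM, 40 min at ambient temperature under linear conditions. Inhibition curves fitted; values reported as pIC50.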

T1 sequence (Q07343 1-564 isoform Q07343-2): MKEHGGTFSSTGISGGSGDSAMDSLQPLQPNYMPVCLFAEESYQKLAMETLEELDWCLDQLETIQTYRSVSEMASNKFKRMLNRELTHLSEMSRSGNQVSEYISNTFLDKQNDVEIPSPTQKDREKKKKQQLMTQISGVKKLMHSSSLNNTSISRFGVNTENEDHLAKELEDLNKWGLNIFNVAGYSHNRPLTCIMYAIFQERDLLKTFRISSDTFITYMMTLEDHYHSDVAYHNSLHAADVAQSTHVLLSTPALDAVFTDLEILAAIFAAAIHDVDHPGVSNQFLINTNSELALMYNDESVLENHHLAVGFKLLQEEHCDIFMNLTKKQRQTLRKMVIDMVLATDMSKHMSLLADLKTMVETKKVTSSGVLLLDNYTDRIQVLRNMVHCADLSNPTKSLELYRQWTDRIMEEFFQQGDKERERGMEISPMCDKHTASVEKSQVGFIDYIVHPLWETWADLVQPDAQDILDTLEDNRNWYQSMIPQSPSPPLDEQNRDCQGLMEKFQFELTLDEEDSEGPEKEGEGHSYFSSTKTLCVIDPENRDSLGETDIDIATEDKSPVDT

Regarding `CCn1ncc2c(NC3CCN(C(N)=O)CC3)c(CNC(=O)c3ccc(C(C)C)cc3)c(C)nc21` [Example 263, 4-({1-ethyl-6-methyl-5-[({[4-(1-methylethyl)phenyl]carbonyl}amino)methyl]-1H-pyrazolo[3,4-b]pyridin-4-yl}amino)-1-piperidinecarboxamide], the IC50 was 10 to 100 pM.

On to `CCn1ncc2c(NC3CCN(C(N)=O)CC3)c(CNC(=O)c3cccc(NC(C)=O)c3)c(C)nc21` [Example 264, 4-({5-[({[3-(acetylamino)phenyl]carbonyl}amino)methyl]-1-ethyl-6-methyl-1H-pyrazolo[3,4-b]pyridin-4-yl}amino)-1-piperidinecarboxamide], for which the IC50 was 10 to 100 pM. Then `CCn1ncc2c(NC3CCN(C(N)=O)CC3)c(CNC(=O)c3ccc(C)cc3O)c(C)nc21` [Example 265, 4-{[1-ethyl-5-({[(2-hydroxy-4-methylphenyl)carbonyl]amino}methyl)-6-methyl-1H-pyrazolo[3,4-b]pyridin-4-yl]amino}-1-piperidinecarboxamide], with 10 to 100 pM; and `CCn1ncc2c(NC3CCN(C(N)=O)CC3)c(CNC(=O)c3ccccc3F)c(C)nc21` [Example 266, 4-{[1-ethyl-5-({[(2-fluorophenyl)carbonyl]amino}methyl)-6-methyl-1H-pyrazolo[3,4-b]pyridin-4-yl]amino}-1-piperidinecarboxamide], with 126 to 1000 pM; and `CCn1ncc2c(NC3CCN(C(N)=O)CC3)c(CNC(=O)c3cccc(N4CCCC4=O)c3)c(C)nc21` [Example 267, 4-({1-ethyl-6-methyl-5-[({[3-(2-oxo-1-pyrrolidinyl)phenyl]carbonyl}amino)methyl]-1H-pyrazolo[3,4-b]pyridin-4-yl}amino)-1-piperidinecarboxamide], with 10 to 100 pM. To `CCn1ncc2c(NC3CCN(C(N)=O)CC3)c(CNC(=O)c3ccc(C(=O)NC)cc3)c(C)nc21` [Example 268, N-[(4-{[1-(aminocarbonyl)-4-piperidinyl]amino}-1-ethyl-6-methyl-1H-pyrazolo[3,4-b]pyridin-5-yl)methyl]-N′-methyl-1,4-benzenedicarboxamide] belongs 10 to 100 pM; to `CCn1ncc2c(NC3CCN(C(N)=O)CC3)c(CNC(=O)c3ccc(N4CCCCC4)cc3)c(C)nc21` [Example 269, 4-({1-ethyl-6-methyl-5-[({[4-(1-piperidinyl)phenyl]carbonyl}amino)methyl]-1H-pyrazolo[3,4-b]pyridin-4-yl}amino)-1-piperidinecarboxamide], 10 to 100 pM. To `CCn1ncc2c(NC3CCN(C(N)=O)CC3)c(CNC(=O)c3cccc4c3OCC4)c(C)nc21` [Example 270, 4-[(5-{[(2,3-dihydro-1-benzofuran-7-ylcarbonyl)amino]methyl}-1-ethyl-6-methyl-1H-pyrazolo[3,4-b]pyridin-4-yl)amino]-1-piperidinecarboxamide] belongs 10 to 100 pM; to `CCn1ncc2c(NC3CCN(C(N)=O)CC3)c(CNC(=O)c3ccc4c(c3)CCC4)c(C)nc21` [Example 271, 4-[(5-{[(2,3-dihydro-1H-inden-5-ylcarbonyl)amino]methyl}-1-ethyl-6-methyl-1H-pyrazolo[3,4-b]pyridin-4-yl)amino]-1-piperidinecarboxamide], 10 to 100 pM; to `CCn1ncc2c(NC3CCN(C(N)=O)CC3)c(CNC(=O)c3ccc(C(C)(C)C)cc3O)c(C)nc21` [Example 272, 4-({5-[({(4-(1,1-dimethylethyl)-2-hydroxyphenyl]carbonyl}amino)methyl}-1-ethyl-6-methyl-1H-pyrazolo[3,4-b]pyridin-4-yl)amino}-1-piperidinecarboxamide], 10 to 100 pM. With `CCn1ncc2c(NC3CCN(C(N)=O)CC3)c(CNC(=O)c3ccc(C4CCCC4)cc3)c(C)nc21` [Example 273, 4-{[5-({[(4-cyclopentylphenyl)carbonyl]amino}methyl)-1-ethyl-6-methyl-1H-pyrazolo[3,4-b]pyridin-4-yl]amino}-1-piperidinecarboxamide], the IC50 is 10 to 100 pM. To `CCn1ncc2c(NC3CCN(C(N)=O)CC3)c(CNC(=O)c3ccc(C)c4c3OCC4)c(C)nc21` [Example 274, 4-{[1-ethyl-6-methyl-5-({[(4-methyl-2,3-dihydro-1-benzofuran-7-yl)carbonyl]amino}methyl)-1H-pyrazolo[3,4-b]pyridin-4-yl]amino}-1-piperidinecarboxamide] belongs 10 to 100 pM; to `CCn1ncc2c(NC3CCOCC3)c(CNC(=O)c3ccccc3O)c(C)nc21` [Example 275, N-{[1-ethyl-6-methyl-4-(tetrahydro-2H-pyran-4-ylamino)-1H-pyrazolo[3,4-b]pyridin-5-yl]methyl}-2-hydroxybenzamide], 10 to 100 pM; to `CCn1ncc2c(NC3CCOCC3)c(CNC(=O)c3ccc(NC(C)=O)cc3O)c(C)nc21` [Example 276, 4-(acetylamino)-N-{[1-ethyl-6-methyl-4-(tetrahydro-2H-pyran-4-ylamino)-1H-pyrazolo[3,4-b]pyridin-5-yl]methyl}-2-hydroxybenzamide], 10 to 100 pM.

As for `CCn1ncc2c(NC3CCOCC3)c(CNC(=O)c3ccc(C(C)(C)C)cc3)c(C)nc21` [Example 277, 4-(1,1-dimethylethyl)-N-{[1-ethyl-6-methyl-4-(tetrahydro-2H-pyran-4-ylamino)-1H-pyrazolo[3,4-b]pyridin-5-yl]methyl}benzamide], the IC50 was 10 to 100 pM.

As for `CCn1ncc2c(NC3CCOCC3)c(CNC(=O)c3ccc(C(C)C)cc3)c(C)nc21` [Example 278, N-{[1-ethyl-6-methyl-4-(tetrahydro-2H-pyran-4-ylamino)-1H-pyrazolo[3,4-b]pyridin-5-yl]methyl}-4-(1-methylethyl)benzamide], the IC50 is 10 to 100 pM. Then `CCn1ncc2c(NC3CCOCC3)c(CNC(=O)c3ccc(C(N)=O)cc3)c(C)nc21` [Example 279, N-{[1-ethyl-6-methyl-4-(tetrahydro-2H-pyran-4-ylamino)-1H-pyrazolo[3,4-b]pyridin-5-yl]methyl}-1,4-benzenedicarboxamide], with 126 to 1000 pM; and `CCn1ncc2c(NC3CCOCC3)c(CNC(=O)c3cccc(NC(C)=O)c3)c(C)nc21` [Example 280, 3-(acetylamino)-N-{[1-ethyl-6-methyl-4-(tetrahydro-2H-pyran-4-ylamino)-1H-pyrazolo[3,4-b]pyridin-5-yl]methyl}benzamide], with 10 to 100 pM.

Turning to `CCn1ncc2c(NC3CCOCC3)c(CNC(=O)c3ccc(C)cc3O)c(C)nc21` [Example 281, N-{[1-ethyl-6-methyl-4-(tetrahydro-2H-pyran-4-ylamino)-1H-pyrazolo[3,4-b]pyridin-5-yl]methyl}-2-hydroxy-4-methylbenzamide], the IC50 is 10 to 100 pM. With `CCn1ncc2c(NC3CCOCC3)c(CNC(=O)c3ccccc3F)c(C)nc21` [Example 282, N-{[1-ethyl-6-methyl-4-(tetrahydro-2H-pyran-4-ylamino)-1H-pyrazolo[3,4-b]pyridin-5-yl]methyl}-2-fluorobenzamide], the IC50 is 126 to 1000 pM. To `CCn1ncc2c(NC3CCOCC3)c(CNC(=O)c3ccc(C(=O)NC)cc3)c(C)nc21` [Example 283, N-{[1-ethyl-6-methyl-4-(tetrahydro-2H-pyran-4-ylamino)-1H-pyrazolo[3,4-b]pyridin-5-yl]methyl}-N′-methyl-1,4-benzenedicarboxamide] belongs 126 to 1000 pM; to `CCn1ncc2c(NC3CCOCC3)c(CNC(=O)c3ccc4c(c3)CCC4)c(C)nc21` [Example 284, N-{[1-ethyl-6-methyl-4-(tetrahydro-2H-pyran-4-ylamino)-1H-pyrazolo[3,4-b]pyridin-5-yl]methyl}-2,3-dihydro-1H-indene-5-carboxamide], 126 to 1000 pM. Then `CCn1ncc2c(NC3CCOCC3)c(CNC(=O)c3ccc(C(C)(C)C)cc3O)c(C)nc21` [Example 285, 4-(1,1-dimethylethyl)-N-{[1-ethyl-6-methyl-4-(tetrahydro-2H-pyran-4-ylamino)-1H-pyrazolo[3,4-b]pyridin-5-yl]methyl}-2-hydroxybenzamide], with 10 to 100 pM; and `CCn1ncc2c(NC3CCOCC3)c(CNC(=O)c3ccc4c(=O)[nH][nH]c4c3)c(C)nc21` [Example 286, N-{[1-ethyl-6-methyl-4-(tetrahydro-2H-pyran-4-ylamino)-1H-pyrazolo[3,4-b]pyridin-5-yl]methyl}-3-oxo-2,3-dihydro-1H-indazole-6-carboxamide], with 126 to 1000 pM. To `CCn1ncc2c(NC3CCOCC3)c(CNC(=O)c3ccc4c(c3)CCCS4(=O)=O)c(C)nc21` [Example 287, N-{[1-ethyl-6-methyl-4-(tetrahydro-2H-pyran-4-ylamino)-1H-pyrazolo[3,4-b]pyridin-5-yl]methyl}-3,4-dihydro-2H-1-benzothiopyran-6-carboxamide 1,1-dioxide] belongs 126 to 1000 pM; to `CCn1ncc2c(NC3CCOCC3)c(CNC(=O)c3ccc(N4CCCC4=O)cc3)c(C)nc21` [Example 288, N-{[1-ethyl-6-methyl-4-(tetrahydro-2H-pyran-4-ylamino)-1H-pyrazolo[3,4-b]pyridin-5-yl]methyl}-4-(2-oxo-1-pyrrolidinyl)benzamide], 10 to 100 pM; to `CCc1nc2c(cnn2CC)c(NC2CCOCC2)c1CNC(=O)N1CCCC1` [Example 289, N-{[1,6-diethyl-4-(tetrahydro-2H-pyran-4-ylamino)-1H-pyrazolo[3,4-b]pyridin-5-yl]methyl}-1-pyrrolidinecarboxamide], 126 to 1000 pM. As for `CCc1nc2c(cnn2CC)c(NC2CCOCC2)c1CNC(=O)N1CCCCC1` [Example 290, N-{[1,6-diethyl-4-(tetrahydro-2H-pyran-4-ylamino)-1H-pyrazolo[3,4-b]pyridin-5-yl]methyl}-1-piperidinecarboxamide], the IC50 is 126 to 1000 pM. To `CCn1ncc2c(NC3CCOCC3)c(CN3Cc4ccccc4C3=O)c(C)nc21` [Example 300, 2-{[1-ethyl-6-methyl-4-(tetrahydro-2H-pyran-4-ylamino)-1H-pyrazolo[3,4-b]pyridin-5-yl]methyl}-2,3-dihydro-1H-isoindol-1-one] belongs 126 to 1000 pM.
